Read-outs that look alike come from different tables or passages of the source.

The source of these data is US20160090556A1, “PRODUCTS COMPRISING MALODOR REDUCTION MATERIALS” (The Procter & Gamble Company, priority 2014, published 2016).

The series in a line: Liquid dish neat product liquid-air partition coefficient. Format: physicochemical. Particulars: for Comment Code: Log of liquid dish neat product liquid-air partition coefficient: code letters K, L.
[1] abbreviates: class code letter within Comment Code.

`CC1CC2CCC3C(C2O1)C(C)(C)C(C)C3(C)C` (stereo not shown) [Material 1097]: the “Log of liquid dish neat product liquid-air partition coefficient (Comment Code K/L)” value (from here on “Log … (Comment Code K/L)”) is on record as “K (Log of liquid dish neat product liquid-air partition coefficient greater than or equal to −7)” and the “Comment Code: Log of liquid dish neat product liquid-air partition coefficient” value (shortened to “Comment Code: Log”) is on record as “K (Log of liquid dish neat product liquid-air partition coefficient greater than or equal to −7)”.
Consider `COC1(C)CCC23CC1C(C)(C)C2CCC3C` (stereo not shown) [Material 565], for which the “Log … (Comment Code K/L)” value was “K (Log of liquid dish neat product liquid-air partition coefficient greater than or equal to −7)” and the “Comment Code: Log” value is recorded as “K (Log of liquid dish neat product liquid-air partition coefficient greater than or equal to −7)”.
As for `C=CC1(C)Cc2occ(C)c2CC1C(=C)C` (stereo not shown) [Material 488], the “Comment Code: Log” value is on record as “K (Log of liquid dish neat product liquid-air partition coefficient greater than or equal to −7)”. Moreover, under setting [1], the “Log … (Comment Code K/L)” value is given as “K (Log of liquid dish neat product liquid-air partition coefficient greater than or equal to −7)”.
Take `COC1CCCCCCCCCCC1` [Material 9]: under setting [1], the “Log … (Comment Code K/L)” value is listed as “K (Log of liquid dish neat product liquid-air partition coefficient greater than or equal to −7)”.
Take `CCCCCCCCC=CC=O` [Material 828]: the “Log … (Comment Code K/L)” value was “K (Log of liquid dish neat product liquid-air partition coefficient greater than or equal to −7)”.
As for `CC(C)C1OCCC2(CC3CCC2(C)C3(C)C)O1` (stereo not shown) [Material 659], the “Log … (Comment Code K/L)” value is listed as “K (Log of liquid dish neat product liquid-air partition coefficient greater than or equal to −7)” and the “Comment Code: Log” value is on record as “K (Log of liquid dish neat product liquid-air partition coefficient greater than or equal to −7)”.
Turning to `COc1cc(C)ccc1O` [Material 492], the “Comment Code: Log” value was “K (Log of liquid dish neat product liquid-air partition coefficient greater than or equal to −7)”.
For the compound `C=C1C2CCC(C)(C)C1CCC(OC)C2` (stereo not shown) [Material 7], the “Comment Code: Log” value was “K (Log of liquid dish neat product liquid-air partition coefficient greater than or equal to −7)”. Besides, the “Log … (Comment Code K/L)” value under setting [1] is “K (Log of liquid dish neat product liquid-air partition coefficient greater than or equal to −7)”.
For `C=C1CCCC(C)(C)C1C=CC(C)=O` (stereo not shown) [Material 324], under setting [1], the “Log … (Comment Code K/L)” value is listed as “K (Log of liquid dish neat product liquid-air partition coefficient greater than or equal to −7)”.
As to `CCC(C)C(=O)OCCc1ccccc1` (stereo not shown) [Material 954], the “Log … (Comment Code K/L)” value is on record as “K (Log of liquid dish neat product liquid-air partition coefficient greater than or equal to −7)”.
As to `CC1=CC[C@@H]2C3CC([C@@H]2C1)[C@@]1(C3)OC1C` (stereo partly shown) [Material 1007], the “Log … (Comment Code K/L)” value is “K (Log of liquid dish neat product liquid-air partition coefficient greater than or equal to −7)” and the “Comment Code: Log” value is given as “K (Log of liquid dish neat product liquid-air partition coefficient greater than or equal to −7)”.
As for `C=CCCC(=O)C1=CCCC2(CCCC2)C1` [Material 1038], the “Log … (Comment Code K/L)” value is listed as “K (Log of liquid dish neat product liquid-air partition coefficient greater than or equal to −7)” and the “Comment Code: Log” value was “K (Log of liquid dish neat product liquid-air partition coefficient greater than or equal to −7)”.
Regarding `CC(=O)CCc1ccccc1` [Material 640], the “Comment Code: Log” value is listed as “K (Log of liquid dish neat product liquid-air partition coefficient greater than or equal to −7)”.
Turning to `C=CCOC(=O)COCCC(C)C` [Material 748], the “Log … (Comment Code K/L)” value is listed as “K (Log of liquid dish neat product liquid-air partition coefficient greater than or equal to −7)”.
As to `CCCC(=O)OC1CC2CC1C1CC=CC21` (stereo not shown) [Material 484], the “Comment Code: Log” value is on record as “K (Log of liquid dish neat product liquid-air partition coefficient greater than or equal to −7)”. Under setting [1], the “Log … (Comment Code K/L)” value is given as “K (Log of liquid dish neat product liquid-air partition coefficient greater than or equal to −7)”.
Consider `C=CCCC(=O)C1CCCC(C)(C)C1` (stereo not shown) [Material 334], for which the “Log … (Comment Code K/L)” value under setting [1] is “K (Log of liquid dish neat product liquid-air partition coefficient greater than or equal to −7)”.
With `CC(C)=CCCC(C)c1ccc(C)cc1` (stereo not shown) [Material 713], the “Log … (Comment Code K/L)” value is “K (Log of liquid dish neat product liquid-air partition coefficient greater than or equal to −7)”.
In the case of `CC(C)=CCC/C(C)=C/CC/C(C)=C/CO` [Material 1065], the “Log … (Comment Code K/L)” value is recorded as “K (Log of liquid dish neat product liquid-air partition coefficient greater than or equal to −7)”.
For the compound `c1ccc2occc2c1` [Material 493], the “Log … (Comment Code K/L)” value under setting [1] was “K (Log of liquid dish neat product liquid-air partition coefficient greater than or equal to −7)”.
On to `O=C(O)CCc1ccccc1` [Material 255], for which the “Comment Code: Log” value is recorded as “K (Log of liquid dish neat product liquid-air partition coefficient greater than or equal to −7)”.
For `CC(C)=CCC/C(C)=C/CO` [Material 1082], the “Log … (Comment Code K/L)” value is on record as “K (Log of liquid dish neat product liquid-air partition coefficient greater than or equal to −7)”.
Take `CCCCCCCCCC/C=C\C#N` [Material 11]: the “Log … (Comment Code K/L)” value under setting [1] is on record as “K (Log of liquid dish neat product liquid-air partition coefficient greater than or equal to −7)”.
Consider `CC12CCCC(C)(CC1)C2=NO` [Material 921], for which the “Comment Code: Log” value is listed as “K (Log of liquid dish neat product liquid-air partition coefficient greater than or equal to −7)”.
Regarding `C/C=C\c1ccc(O)c(OC)c1` [Material 528], the “Comment Code: Log” value is on record as “K (Log of liquid dish neat product liquid-air partition coefficient greater than or equal to −7)”.
As to `CCCC(O)Cc1ccccc1` (stereo not shown) [Material 730], the “Log … (Comment Code K/L)” value was “K (Log of liquid dish neat product liquid-air partition coefficient greater than or equal to −7)”.
On to `CC1COCc2cc3c(cc21)C(C)(C)C(C)C3(C)C` (stereo not shown) [Material 335], for which the “Comment Code: Log” value was “K (Log of liquid dish neat product liquid-air partition coefficient greater than or equal to −7)”. Besides, the “Log … (Comment Code K/L)” value under setting [1] is listed as “K (Log of liquid dish neat product liquid-air partition coefficient greater than or equal to −7)”.
For the compound `CC(C=O)Cc1ccc(C(C)(C)C)cc1` (stereo not shown) [Material 162], the “Log … (Comment Code K/L)” value under setting [1] was “K (Log of liquid dish neat product liquid-air partition coefficient greater than or equal to −7)”.
Regarding `CC(C)c1ccc2ncccc2c1` [Material 778], the “Log … (Comment Code K/L)” value was “K (Log of liquid dish neat product liquid-air partition coefficient greater than or equal to −7)”.
On to `CC1=CC2CC(C3OCCO3)C1CC2C(C)C` (stereo not shown) [Material 912], for which the “Log … (Comment Code K/L)” value is listed as “K (Log of liquid dish neat product liquid-air partition coefficient greater than or equal to −7)”.
For `CC1OCC(c2ccccc2)O1` (stereo not shown) [Material 190], the “Log … (Comment Code K/L)” value under setting [1] is listed as “K (Log of liquid dish neat product liquid-air partition coefficient greater than or equal to −7)”.
Regarding `C=CC(C)(CCC=C(C)C)OC(C)OCC` (stereo not shown) [Material 916], the “Log … (Comment Code K/L)” value was “K (Log of liquid dish neat product liquid-air partition coefficient greater than or equal to −7)”.
Regarding `CCCCOC(=O)C(C)OC(=O)CCC` (stereo not shown) [Material 595], the “Log … (Comment Code K/L)” value is on record as “K (Log of liquid dish neat product liquid-air partition coefficient greater than or equal to −7)”.
For the compound `CC(=O)OC12CCCC(C)(CCC3C1CC3(C)C)C2` (stereo not shown) [Material 573], the “Log … (Comment Code K/L)” value was “K (Log of liquid dish neat product liquid-air partition coefficient greater than or equal to −7)” and the “Comment Code: Log” value is on record as “K (Log of liquid dish neat product liquid-air partition coefficient greater than or equal to −7)”.
Consider `CC1=CCC(C(C)CC2CCCC2=O)CC1` (stereo not shown) [Material 69], for which, under setting [1], the “Log … (Comment Code K/L)” value is on record as “K (Log of liquid dish neat product liquid-air partition coefficient greater than or equal to −7)”.
Still for that read-out and setting: the entry for `CCC(=O)OCC=Cc1ccccc1` [Material 548] is “K (Log of liquid dish neat product liquid-air partition coefficient greater than or equal to −7)”.
For `CC1CCC2C(C)(C)C3CC12CCC3(C)OC=O` (stereo not shown) [Material 566], the “Log … (Comment Code K/L)” value is recorded as “K (Log of liquid dish neat product liquid-air partition coefficient greater than or equal to −7)” and the “Comment Code: Log” value is “K (Log of liquid dish neat product liquid-air partition coefficient greater than or equal to −7)”.
On to `C=CC(C)(O)CCC=C(C)CCC=C(C)C` (stereo not shown) [Material 63], for which the “Log … (Comment Code K/L)” value under setting [1] is recorded as “K (Log of liquid dish neat product liquid-air partition coefficient greater than or equal to −7)”.
In the case of `O=C1CCC=CCCCCCCCCCC1` [Material 371], the “Log … (Comment Code K/L)” value under setting [1] is given as “K (Log of liquid dish neat product liquid-air partition coefficient greater than or equal to −7)”.
Regarding `CC1(O)CCC2=C(CCCC2(C)C)C1` (stereo not shown) [Material 676], the “Log … (Comment Code K/L)” value is “K (Log of liquid dish neat product liquid-air partition coefficient greater than or equal to −7)”.
Regarding `CCCCCOC(=O)C=Cc1ccccc1` [Material 671], the “Log … (Comment Code K/L)” value is recorded as “K (Log of liquid dish neat product liquid-air partition coefficient greater than or equal to −7)”.
The same measure, in the same setting: the same measure for `COc1ccc(CCC(C)=O)cc1` [Material 803]: “K (Log of liquid dish neat product liquid-air partition coefficient greater than or equal to −7)”.
